# Source: paper PMC6461504 (ACS infectious diseases, 2019)
# Like-named read-outs stand apart in the source and are kept apart here.
# How the values were obtained:
# [1] = test system: negatively supercoiled pBR322 DNA; assay: DNA cleavage control without gyrase; settings: 200 μM gepotidacin, 3 h incubation, no gyrase
# [2] = biological target: S. aureus gyrase-DNA cleavage complexes (Staphylococcus aureus, UniProt P0A0K8+P20831); assay: Stability; settings: 5 μM gepotidacin, 20-fold dilution into buffer lacking divalent metal ion
# Chain of S. aureus gyrase-DNA cleavage complexes (P20831 whole entry): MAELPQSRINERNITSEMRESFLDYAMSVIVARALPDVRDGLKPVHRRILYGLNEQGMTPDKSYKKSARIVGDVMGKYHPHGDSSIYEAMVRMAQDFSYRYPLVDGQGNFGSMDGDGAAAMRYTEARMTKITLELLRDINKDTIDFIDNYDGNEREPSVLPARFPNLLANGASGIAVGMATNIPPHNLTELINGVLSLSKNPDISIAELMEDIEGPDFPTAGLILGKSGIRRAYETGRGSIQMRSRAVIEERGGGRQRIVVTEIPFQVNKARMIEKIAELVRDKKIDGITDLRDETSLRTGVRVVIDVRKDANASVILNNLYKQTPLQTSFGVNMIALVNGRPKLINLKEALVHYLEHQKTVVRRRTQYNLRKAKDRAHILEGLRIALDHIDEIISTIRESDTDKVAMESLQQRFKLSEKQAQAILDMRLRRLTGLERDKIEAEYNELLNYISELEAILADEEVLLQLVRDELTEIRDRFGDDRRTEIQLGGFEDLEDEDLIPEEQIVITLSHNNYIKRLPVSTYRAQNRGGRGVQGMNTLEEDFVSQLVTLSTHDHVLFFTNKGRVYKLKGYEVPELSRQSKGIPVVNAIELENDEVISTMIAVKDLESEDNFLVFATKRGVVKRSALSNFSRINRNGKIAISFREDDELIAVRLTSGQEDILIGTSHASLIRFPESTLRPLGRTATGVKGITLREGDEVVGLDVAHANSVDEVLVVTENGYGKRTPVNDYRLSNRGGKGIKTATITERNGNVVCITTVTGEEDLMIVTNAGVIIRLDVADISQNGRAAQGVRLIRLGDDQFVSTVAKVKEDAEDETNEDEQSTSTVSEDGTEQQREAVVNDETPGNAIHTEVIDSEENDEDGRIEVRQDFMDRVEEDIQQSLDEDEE
# Chain of S. aureus gyrase-DNA cleavage complexes (P0A0K8 whole entry): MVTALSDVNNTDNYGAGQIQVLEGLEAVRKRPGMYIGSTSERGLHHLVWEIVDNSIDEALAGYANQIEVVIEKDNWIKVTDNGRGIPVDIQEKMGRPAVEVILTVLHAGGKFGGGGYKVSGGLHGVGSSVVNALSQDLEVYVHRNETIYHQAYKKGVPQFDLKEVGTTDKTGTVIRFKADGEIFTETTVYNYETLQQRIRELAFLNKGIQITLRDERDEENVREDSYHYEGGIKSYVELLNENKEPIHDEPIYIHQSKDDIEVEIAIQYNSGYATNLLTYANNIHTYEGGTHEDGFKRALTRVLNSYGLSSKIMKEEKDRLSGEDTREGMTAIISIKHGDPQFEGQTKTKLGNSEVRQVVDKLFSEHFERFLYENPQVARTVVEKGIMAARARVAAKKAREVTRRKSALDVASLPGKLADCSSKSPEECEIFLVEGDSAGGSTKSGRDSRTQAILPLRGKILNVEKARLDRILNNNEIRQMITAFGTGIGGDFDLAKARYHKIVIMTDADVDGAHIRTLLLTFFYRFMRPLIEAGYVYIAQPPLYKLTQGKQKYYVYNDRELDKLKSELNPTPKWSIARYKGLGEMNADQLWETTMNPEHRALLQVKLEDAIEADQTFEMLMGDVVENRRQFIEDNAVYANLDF
# [3] = biological target: T1, S. aureus gyrase (Staphylococcus aureus, UniProt P0A0K8+P20831)
# T1 sequence (P0A0K8 whole entry): as above
# T1 sequence (P20831 whole entry): as the sequence (P20831 whole entry) above
# [4] = biological target: T1, S. aureus gyrase; assay: DNA cleavage competition assay, gepotidacin vs moxifloxacin; format: biochemical; settings: 100 μM gepotidacin plus 25 μM moxifloxacin
Structure (SMILES),DNA cleavage when gyrase was left out [1],stability of gyrase-DNA cleavage complexes [2] [h],"type of DNA breaks at high concentration ([3]; 200 μM, time course 6 times longer than standard)",gyrase-mediated double-stranded DNA cleavage ([3]; 1.5 mM ATP),"type of DNA breaks created ([3]; 5 or 200 μM, negatively supercoiled DNA)","effect on double-stranded DNA cleavage in the presence of Ca2+ ([3]; MgCl2 replaced by CaCl2, increasing gepotidacin concentrations)","gyrase-mediated double-stranded DNA breaks ([3]; high gepotidacin concentration, long cleavage times, or presence of ATP)","levels of single-stranded breaks, positively vs negatively supercoiled plasmid ([3]; lower with positively supercoiled plasmid)","single-stranded DNA breaks, share of the initial substrate ([3]; negatively supercoiled plasmid, low micromolar concentrations)",gyrase-mediated double-stranded DNA breaks ([3]; positively supercoiled DNA),drop in levels of moxifloxacin-induced double-stranded breaks [4],fall in potency with positively vs negatively supercoiled substrates ([3]; double-stranded breaks)
O=c1ccc2ncc(=O)n3c2n1C[C@H]3CN1CCC(NCc2cc3c(cn2)OCCC3)CC1 [Gepotidacin],no DNA cleavage was observed,> 4,only single-stranded breaks were observed,no double-stranded DNA cleavage was observed,all of the breaks created in the presence of gepotidacin were single-stranded,coordinate decrease in levels of double-stranded DNA cleavage,No double-stranded breaks were observed,~ 2 fold,more than 30%,no double-stranded breaks were observed,~ 95%,
"COc1c(N2C[C@@H]3CCCN[C@@H]3C2)c(F)cc2c(=O)c(C(=O)O)cn(C3CC3)c12 [moxifloxacin, reference compound]",,,,,,,,,,,,~ 8 fold
